In brackets after ≈: the same amount, converted by molar mass.
Legend:
J774 macrophages = test: Alamar Blue macrophage J774 viability assay; assay type: cell-based; conditions: Mus musculus, 72 hours culture with compound, Alamar Blue read-out
Protocol: (§1) Initial screening of candidate compounds was performed using in vitro assays to determine potency, metabolic stability and solubility in biologically relevant fluids. Potency was assessed using a viability assay based on the survival of the J774 macrophage cell line. Macrophages are closely related to osteoclasts and have been used previously as a model system for osteoclast survival (see, e.g., Luckman et al., 1998). Like osteoclasts, J774 macrophages are dependent on continued NFκB activation for survival, thereby providing a valuable screen for compounds with anti-inflammatory activity. Metabolic stability was measured by determining the rate of disappearance of compound in the presence of human liver microsomal preparations, as quantified by LC-MS/MS. Solubility was measured by equilibration of the compound in fasted state simulated intestinal fluid (FaSSIF) and quantified by HPLC.
In vitro potency as anti-inflammatory agents was determined for a number of APSAP compounds by incubation with J774 macrophages and subsequent determination of cell viability.
J774 cells were plated at 10^4 cells per well in 100 μL αMEM (α Modified Eagle Medium) in 96-well plates and grown overnight. The next day, test compounds were added to the cultures, and cultures were continued for another 72 hours. At the end of the culture period, cell survival was determined using an Alamar Blue assay as previously described (see, e.g., Nociari et al., 1998).
Alamar Blue is an oxidation-reduction sensitive indicator. The dye itself is in the oxidised state, which is blue and non-fluorescent. The dye can accept electrons from reducing species, such as NADPH and FADH, to form a reduced dye species, which is red and fluorescent. Thus the transformation from oxidised form to reduced form can be measured by fluorimetric or colourimetric means. For fluorescence measurements, 530-560 nm excitation and 590 nm emission wavelengths are typically used. For colourimetric measurements, absorbance at 570 nm (reduced form) and 600 nm (oxidised form) is typically measured. A simple calculation is performed to determine the relative quantities of the two species.
A high ratio of the reducing species, NADPH and FADH, to the corresponding oxidised species, NADP and FAD, is an indicator that cells are proliferating and viable. A low ratio indicates cells that are quiescent or non-viable.
Briefly, Alamar Blue (Biosource International) was added undiluted to each well (1:10 v/v, 10 μL). The plate was incubated at 37° C. for 3-4 hours and the fluorescence was measured at 590 nm, with a 25 nm bandwidth. A high reading indicated cells with normal viability, and a low reading indicated cells that have been damaged and are no longer proliferating normally. The controls gave a high fluorescence reading, indicating a high number of live, healthy cells. A potent test compound gave a low fluorescence reading.
The average results for each test compound (n=5) were expressed as a percent (%) of the average control value.
Addition of Compounds. All of the compounds studied were made up as 100 mM solutions in DMSO. These stock solutions were then diluted 1000-10000× in culture medium (αMEM). From these 100 μM or 10 μM solutions, convenient quantities (3-33 μL) were added directly to the wells so as to give the desired final compound concentration.

[1] = Human liver microsomal stability assay; assay type: in vitro ADME; conditions: pooled human liver microsomes 0.5 mg/mL, test compound 3 μM, 45 minute incubation, NADPH
Protocol: as §1
Metabolic stability of APSAP derivatives was measured by determination of the rate of compound disappearance when incubated in the presence of human liver microsomes. Liver microsomes are prepared from the endoplasmic reticulum of hepatocytes and are the primary source of the most important enzymes (cytochrome P450) involved in drug metabolism. Study of drug stability in the presence of liver microsomes is accepted as a valuable model permitting rapid prediction of in vivo drug stability.
Human liver microsomes were obtained from a commercial source. Test compounds (3 μM) were incubated with pooled liver microsomes (male and female). Samples were incubated for a 45 minute period and removed at 5 time points and test compounds were analysed by LC-MS/MS.
The final incubation volume was 25 μL. A control incubation was included for each compound tested, where 0.1 M phosphate buffer pH 7.4 was added instead of NADPH. The control compounds testosterone and 7-hydroxycoumarin were included in each experiment and all incubations were performed singularly for each compound.
Each compound was incubated for 0, 5, 15, 30, and 45 minutes. The control (minus NADPH) was incubated for 45 minutes only. The reactions were stopped by the addition of 50 μL methanol containing internal standard at the appropriate time points. The incubation plates were centrifuged at 2500 rpm for 20 minutes at 4° C. to precipitate the protein.
Following protein precipitation, the sample supernatants were combined in cassettes of up to 4 compounds and analysed using standard LC-MS/MS conditions.
From a plot of the natural logarithm of the peak area ratio (i.e., the ratio of compound peak area:internal standard peak area) against time, the gradient of the line was determined. Subsequently, half-life and intrinsic clearance were calculated using the equations below: Eliminated rate constant(k)=(−gradient). […] Intrinsic Clearance(CLint)([…])=(V×0.693)/t1/2. wherein V=Incubation volume(μL/mg microsomal protein). Pharmacokinetics Studies

[2] = Thermodynamic aqueous solubility in fasted state simulated intestinal fluid (FaSSIF); assay type: physicochemical; conditions: fasted state simulated intestinal fluid (FaSSIF), pH 6.5, thermodynamic from solid, 25° C., 24 hours equilibration, HPLC
Protocol: as §1
Thermodynamic aqueous solubility was measured by equilibration of a number of APSAP compounds, in the solid state, with fasted state simulated intestinal fluid (FaSSIF) and quantified by HPLC. Measurement of solubility in FaSSIF provides a valuable model for the prediction of drug dissolution following oral administration.
Preparation of blank FaSSIF: NaOH pellets (174 mg), NaH2PO4.2H2O (2.235 g), and NaCl (3.093 g) were dissolved in 500 mL of water. The pH was adjusted to 6.5 using 1 M NaOH solution.
Preparation of FaSSIF: Sodium taurocholate (165 mg) was dissolved in 25 mL blank FaSSIF. 0.6 mL of a solution containing 100 mg/mL lecithin in methylene chloride was added. The methylene chloride was eliminated under vacuum at about 40° C. The vacuum was drawn for 15 minutes at 250 mbar, followed by 15 minutes at 100 mbar. […] After cooling to room temperature, the solution was then adjusted to 100 mL with blank FaSSIF.
The suspension was equilibrated at 25° C. for 24 hours, and then the pH was measured. The suspension was then filtered through a glass fibre C filter into a 96-well plate. The filtrate was then diluted by a factor of 100. Quantification was made by HPLC with reference to a standard solution of compound at approximately 0.1 mg/mL in DMSO. Different volumes of the standard, diluted and undiluted sample solutions were injected. The solubility was calculated using the peak areas determined by integration of the peak found at the same retention time as the principal peak in the standard injection. Analysis was performed on an Agilent HP1100 series system equipped with a diode array detector and using ChemStation software vB.02.01-SR1.

T1/2 [1]: Stable
solubility at 24 h [2]: 520 µg/mL (≈ 1240 µM)
Structure (SMILES): CNC(CO)c1cccc(NS(=O)(=O)c2ccc(-c3ccc(F)cc3F)cc2)c1 (stereo not drawn) [ABD789, 2′,4′-Difluoro-N-(3-(2-hydroxy-1-(methylamino)ethyl)phenyl)biphenyl-4-sulfonamide]
IC50 (J774 macrophages): 140 nM
